Source: the NIST ThermoML archive (doi:10.1016/j.jct.2008.01.018)

Assay: mn = molality of the nth substance listed, in mol/kg
Settings: 101 kPa, Liquid; for speed of sound: Sing-around technique in a fixed-path interferometer; for molar conductivity: Alternating current cell with electrodes

O=P([O-])(O)O.[Na+] [sodium dihydrogen phosphate] + O
Settings | mass density [kg/m3] | molar conductivity [S·m2/mol] | speed of sound [m/s]
283.15 K, m1 = 0.0343 | 1002.89 | – | 1451.8
283.15 K, m1 = 0.0484 | 1004.16 | – | 1453.5
283.15 K, m1 = 0.1399 | 1012.4 | – | 1463.6
283.15 K, m1 = 0.167 | 1014.82 | – | 1466.5
283.15 K, m1 = 0.1967 | 1017.47 | – | 1469.7
283.15 K, m1 = 0.2231 | 1019.84 | – | 1472.6
283.15 K, m1 = 0.2506 | 1022.23 | – | 1475.5
283.15 K, m1 = 0.3229 | 1028.59 | – | 1483.2
283.15 K, m1 = 0.3586 | 1031.67 | – | 1486.9
283.15 K, m1 = 0.4346 | 1038.07 | – | 1494.7
283.15 K, m1 = 0.5108 | 1044.45 | – | 1502.2
283.15 K, m1 = 0.5812 | 1050.36 | – | 1509.2
283.15 K, m1 = 0.6658 | 1057.33 | – | 1517.5
283.15 K, m1 = 0.7462 | 1063.82 | – | 1525.3
283.15 K, m1 = 0.9163 | 1077.42 | – | 1541.5
283.15 K, m1 = 1.093 | 1091.46 | – | 1558.4
283.15 K, m1 = 1.262 | 1104.21 | – | 1573.7
283.15 K, m1 = 1.451 | 1117.95 | – | 1590.5
283.15 K, m1 = 1.758 | 1139.71 | – | 1617
283.15 K, m1 = 2.041 | 1159.21 | – | 1641.2
283.15 K, m1 = 2.374 | 1181.48 | – | 1669.2
283.15 K, m1 = 2.747 | 1205.29 | – | 1699.5
283.15 K, m1 = 3.115 | 1226.77 | – | 1727.2
283.15 K, m1 = 3.512 | 1250.32 | – | 1758.2
288.15 K, m1 = 0.0343 | 1002.25 | – | 1470
288.15 K, m1 = 0.0484 | 1003.5 | – | 1471.6
288.15 K, m1 = 0.1399 | 1011.65 | – | 1481.2
288.15 K, m1 = 0.167 | 1014.03 | – | 1484.1
288.15 K, m1 = 0.1967 | 1016.66 | – | 1487.2
288.15 K, m1 = 0.2231 | 1019 | – | 1490
288.15 K, m1 = 0.2506 | 1021.37 | – | 1492.8
288.15 K, m1 = 0.3229 | 1027.65 | – | 1500.2
288.15 K, m1 = 0.3586 | 1030.7 | – | 1503.7
288.15 K, m1 = 0.4346 | 1037.04 | – | 1511.1
288.15 K, m1 = 0.5108 | 1043.36 | – | 1518.4
288.15 K, m1 = 0.5812 | 1049.21 | – | 1525.2
288.15 K, m1 = 0.6658 | 1056.12 | – | 1533.1
288.15 K, m1 = 0.7462 | 1062.54 | – | 1540.5
288.15 K, m1 = 0.9163 | 1076.03 | – | 1556.1
288.15 K, m1 = 1.093 | 1089.96 | – | 1572.3
288.15 K, m1 = 1.262 | 1102.62 | – | 1587
288.15 K, m1 = 1.451 | 1116.26 | – | 1602.9
288.15 K, m1 = 1.758 | 1137.89 | – | 1628.3
288.15 K, m1 = 2.041 | 1157.28 | – | 1651.4
288.15 K, m1 = 2.374 | 1179.42 | – | 1678.2
288.15 K, m1 = 2.747 | 1203.12 | – | 1707.2
288.15 K, m1 = 3.115 | 1224.51 | – | 1733.6
288.15 K, m1 = 3.512 | 1247.97 | – | 1763.3
293.15 K, m1 = 0.0343 | 1001.32 | – | 1486
293.15 K, m1 = 0.0484 | 1002.56 | – | 1487.6
293.15 K, m1 = 0.1399 | 1010.62 | – | 1496.9
293.15 K, m1 = 0.167 | 1012.98 | – | 1499.7
293.15 K, m1 = 0.1967 | 1015.58 | – | 1502.7
293.15 K, m1 = 0.2231 | 1017.9 | – | 1505.3
293.15 K, m1 = 0.2506 | 1020.25 | – | 1508
293.15 K, m1 = 0.3229 | 1026.47 | – | 1515.1
293.15 K, m1 = 0.3586 | 1029.5 | – | 1518.5
293.15 K, m1 = 0.4346 | 1035.78 | – | 1525.6
293.15 K, m1 = 0.5108 | 1042.04 | – | 1532.6
293.15 K, m1 = 0.5812 | 1047.85 | – | 1539.1
293.15 K, m1 = 0.6658 | 1054.7 | – | 1546.8
293.15 K, m1 = 0.7462 | 1061.08 | – | 1553.9
293.15 K, m1 = 0.9163 | 1074.46 | – | 1568.9
293.15 K, m1 = 1.093 | 1088.3 | – | 1584.3
293.15 K, m1 = 1.262 | 1100.87 | – | 1598.5
293.15 K, m1 = 1.451 | 1114.43 | – | 1613.8
293.15 K, m1 = 1.758 | 1135.93 | – | 1638.1
293.15 K, m1 = 2.041 | 1155.22 | – | 1660.2
293.15 K, m1 = 2.374 | 1177.26 | – | 1685.9
293.15 K, m1 = 2.747 | 1200.86 | – | 1713.7
293.15 K, m1 = 3.115 | 1222.16 | – | 1739
293.15 K, m1 = 3.512 | 1245.55 | – | 1767.4
298.15 K, m1 = 0.0207 | – | 0.00762 | –
298.15 K, m1 = 0.0343 | 1000.13 | – | 1500.2
298.15 K, m1 = 0.0415 | – | 0.00723 | –
298.15 K, m1 = 0.0484 | 1001.36 | – | 1501.7
298.15 K, m1 = 0.0697 | – | 0.00683 | –
298.15 K, m1 = 0.1051 | – | 0.00655 | –
298.15 K, m1 = 0.1397 | – | 0.00634 | –
298.15 K, m1 = 0.1399 | 1009.35 | – | 1510.6
298.15 K, m1 = 0.167 | 1011.69 | – | 1513.2
298.15 K, m1 = 0.1901 | – | 0.0061 | –
298.15 K, m1 = 0.1967 | 1014.27 | – | 1516.2
298.15 K, m1 = 0.2231 | 1016.57 | – | 1518.7
298.15 K, m1 = 0.2357 | – | 0.0059 | –
298.15 K, m1 = 0.2506 | 1018.89 | – | 1521.3
298.15 K, m1 = 0.2947 | – | 0.00572 | –
298.15 K, m1 = 0.3229 | 1025.07 | – | 1528.2
298.15 K, m1 = 0.3516 | – | 0.00553 | –
298.15 K, m1 = 0.3586 | 1028.07 | – | 1531.5
298.15 K, m1 = 0.433 | – | 0.00533 | –
298.15 K, m1 = 0.4346 | 1034.3 | – | 1538.3
298.15 K, m1 = 0.5108 | 1040.52 | – | 1545
298.15 K, m1 = 0.5113 | – | 0.00517 | –
298.15 K, m1 = 0.5812 | 1046.29 | – | 1551.3
298.15 K, m1 = 0.5842 | – | 0.00496 | –
298.15 K, m1 = 0.653 | – | 0.00484 | –
298.15 K, m1 = 0.6658 | 1053.09 | – | 1558.7
298.15 K, m1 = 0.6999 | – | 0.00475 | –
298.15 K, m1 = 0.7462 | 1059.42 | – | 1565.5
298.15 K, m1 = 0.7919 | – | 0.00457 | –
298.15 K, m1 = 0.9163 | 1072.73 | – | 1579.9
298.15 K, m1 = 0.9206 | – | 0.00436 | –
298.15 K, m1 = 1.093 | 1086.48 | – | 1594.8
298.15 K, m1 = 1.175 | – | 0.00398 | –
298.15 K, m1 = 1.18 | – | 0.00398 | –
298.15 K, m1 = 1.262 | 1098.98 | – | 1608.4
298.15 K, m1 = 1.447 | – | 0.00367 | –
298.15 K, m1 = 1.451 | 1112.46 | – | 1623.1
298.15 K, m1 = 1.758 | 1133.86 | – | 1646.4
298.15 K, m1 = 1.794 | – | 0.00329 | –
298.15 K, m1 = 2.041 | 1153.06 | – | 1667.7
298.15 K, m1 = 2.079 | – | 0.00303 | –
298.15 K, m1 = 2.374 | 1175 | – | 1692.3
298.15 K, m1 = 2.396 | – | 0.00276 | –
298.15 K, m1 = 2.398 | – | 0.00278 | –
298.15 K, m1 = 2.747 | 1198.51 | – | 1718.9
298.15 K, m1 = 3.115 | 1219.74 | – | 1743.2
298.15 K, m1 = 3.512 | 1243.05 | – | 1770.5
303.15 K, m1 = 0.0343 | 998.703 | – | 1512.4
303.15 K, m1 = 0.0484 | 999.924 | – | 1513.9
303.15 K, m1 = 0.1399 | 1007.86 | – | 1522.5
303.15 K, m1 = 0.167 | 1010.18 | – | 1525.1
303.15 K, m1 = 0.1967 | 1012.74 | – | 1527.9
303.15 K, m1 = 0.2231 | 1015.02 | – | 1530.4
303.15 K, m1 = 0.2506 | 1017.33 | – | 1532.9
303.15 K, m1 = 0.3229 | 1023.47 | – | 1539.5
303.15 K, m1 = 0.3586 | 1026.45 | – | 1542.6
303.15 K, m1 = 0.4346 | 1032.64 | – | 1549.3
303.15 K, m1 = 0.5108 | 1038.82 | – | 1555.8
303.15 K, m1 = 0.5812 | 1044.55 | – | 1561.8
303.15 K, m1 = 0.6658 | 1051.31 | – | 1568.9
303.15 K, m1 = 0.7462 | 1057.61 | – | 1575.5
303.15 K, m1 = 0.9163 | 1070.83 | – | 1589.4
303.15 K, m1 = 1.093 | 1084.51 | – | 1603.7
303.15 K, m1 = 1.262 | 1096.94 | – | 1616.8
303.15 K, m1 = 1.451 | 1110.36 | – | 1631
303.15 K, m1 = 1.758 | 1131.66 | – | 1653.4
303.15 K, m1 = 2.041 | 1150.78 | – | 1673.9
303.15 K, m1 = 2.374 | 1172.65 | – | 1697.5
303.15 K, m1 = 2.747 | 1196.07 | – | 1723.2
303.15 K, m1 = 3.115 | 1217.23 | – | 1746.5
303.15 K, m1 = 3.512 | 1240.48 | – | 1772.8
